Counter-ions that a name gives are not always drawn. Like-named read-outs stand apart in the source and are kept apart here. Numbered stars: 1 amine (or outer) side, 2 acyl side, 3 side chain; on linkers, the order of the positions; unused ones are H or OH. Bridge positions count the residues as written; N and C are the ends. Square brackets hold non-standard residues; d marks the D form. Peptide text beside a SMILES is read from it. Adda = CO[C@@H](Cc1ccccc1)[C@@H](C)/C=C(C)/C=C/[C@H](N[*:1])[C@H](C)C(=O)[*:2]; dAsp(3S-Me) = C[C@H](C(=O)[*:3])[C@@H](N[*:1])C(=O)[*:2]; d(γGlu) = O=C(O)[C@@H](CCC(=O)[*:2])N[*:1]; NMeDha = C=C(NC)C(=O)O
What was measured:
Aurora kinase B = Aurora kinase B (Homo sapiens, UniProt Q96GD4); settings: description of known inhibitor; cited from earlier work
[1] = system: breast cancer cells expressing high levels of Fra-1
PP2A = settings: cited from earlier work
PP1 = settings: cited from earlier work
E2F1-DNA complex = E2F1-DNA complex (Homo sapiens, UniProt Q01094); settings: description of known inhibitor; cited from earlier work
PP4 = PP4 (Homo sapiens, UniProt P60510); settings: description of known inhibitor; cited from earlier work
Adenosine A2b receptor = Adenosine A2b receptor (Homo sapiens, UniProt P29275); settings: description of known inhibitor; cited from earlier work
PRLs = settings: cited from earlier work

Chain of Aurora kinase B (Q96GD4 whole entry): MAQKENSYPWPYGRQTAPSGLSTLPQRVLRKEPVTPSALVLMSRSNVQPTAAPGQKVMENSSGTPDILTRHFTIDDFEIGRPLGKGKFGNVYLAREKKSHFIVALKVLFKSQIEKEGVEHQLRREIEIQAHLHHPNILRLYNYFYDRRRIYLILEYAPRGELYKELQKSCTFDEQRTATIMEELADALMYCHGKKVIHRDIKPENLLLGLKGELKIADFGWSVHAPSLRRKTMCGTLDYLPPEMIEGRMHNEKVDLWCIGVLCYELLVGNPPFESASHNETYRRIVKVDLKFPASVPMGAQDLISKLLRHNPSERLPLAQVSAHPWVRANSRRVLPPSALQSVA
Chain of Adenosine A2b receptor (P29275 whole entry): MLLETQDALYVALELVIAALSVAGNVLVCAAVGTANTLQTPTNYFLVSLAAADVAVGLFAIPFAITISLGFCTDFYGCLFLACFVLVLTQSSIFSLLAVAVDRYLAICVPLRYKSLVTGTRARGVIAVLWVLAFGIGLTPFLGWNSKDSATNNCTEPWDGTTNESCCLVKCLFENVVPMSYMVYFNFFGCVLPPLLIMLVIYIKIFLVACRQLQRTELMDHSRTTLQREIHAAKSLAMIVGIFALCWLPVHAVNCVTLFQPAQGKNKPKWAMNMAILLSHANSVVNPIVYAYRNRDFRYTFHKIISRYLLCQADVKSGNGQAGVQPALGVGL
Chain of E2F1-DNA complex (Q01094 whole entry, one chain of several): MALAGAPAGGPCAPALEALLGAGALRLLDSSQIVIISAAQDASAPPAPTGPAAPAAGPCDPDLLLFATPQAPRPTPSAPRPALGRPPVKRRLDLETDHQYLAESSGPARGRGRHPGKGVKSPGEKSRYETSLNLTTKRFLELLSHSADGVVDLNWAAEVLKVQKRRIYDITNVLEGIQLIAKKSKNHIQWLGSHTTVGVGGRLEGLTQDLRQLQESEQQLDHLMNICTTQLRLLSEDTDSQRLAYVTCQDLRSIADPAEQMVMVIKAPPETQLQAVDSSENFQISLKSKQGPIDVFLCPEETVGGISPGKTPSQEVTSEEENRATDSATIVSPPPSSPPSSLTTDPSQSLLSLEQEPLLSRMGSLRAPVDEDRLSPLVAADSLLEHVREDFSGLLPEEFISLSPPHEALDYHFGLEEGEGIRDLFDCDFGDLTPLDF
Chain of PP4 (P60510 whole entry): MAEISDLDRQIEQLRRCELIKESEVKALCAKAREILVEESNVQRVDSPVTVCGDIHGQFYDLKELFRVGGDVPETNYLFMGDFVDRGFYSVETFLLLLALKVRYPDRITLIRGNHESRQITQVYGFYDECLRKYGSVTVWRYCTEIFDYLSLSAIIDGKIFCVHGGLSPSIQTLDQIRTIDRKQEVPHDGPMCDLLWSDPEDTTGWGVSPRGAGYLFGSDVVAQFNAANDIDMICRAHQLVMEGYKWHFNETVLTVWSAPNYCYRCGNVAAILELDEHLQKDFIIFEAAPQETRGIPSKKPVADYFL

Molecule: CCN(CCCOc1ccc2c(Nc3cc(CC(=O)Nc4cccc(F)c4)n[nH]3)ncnc2c1)CCOP(=O)(O)O [AZD1152]
- inhibition of Aurora kinase B (Aurora kinase B): selective inhibitor

Molecule: Nc1nc2ccc(Cl)cc2c2nc(-c3ccco3)nn12 [CGS-15953]
- cytotoxicity for breast cancer cells expressing high levels of Fra-1 [1]: *In an in vitro drug screen with the LOPAC library, we identified those two ADORA2B inhibitors as being selectively cytotoxic for breast cancer cells expressing high levels of Fra-1.

Molecule: COC[C@@H]([C@H](O)[C@H](O)C(=O)NCC[C@H](C)c1nc(/C=C/C[C@@H]2O[C@]3(C[C@@H](O)[C@@H]2C)O[C@H]([C@H](C[C@H](O)[C@H](C)[C@H](O)[C@H](C)/C=C(C)/C(C)=C/C=C/C(C)=C\C#N)OC)[C@H](OP(=O)(O)O)C3(C)C)co1)N(C)C [Calyculin A]
- potency for PP2A (PP2A; description of known inhibitor): high potency for PP2A, low potency for PP1
- potency for PP1 (PP1): high potency for PP2A, low potency for PP1

Molecule: C[C@@]12C(=O)OC(=O)[C@]1(C)[C@H]1CC[C@@H]2O1 [Candharidin]
- potency for PP2A (PP2A; description of known inhibitor): selective inhibitor of PP2A

Molecule: CC1(C(=O)O)C2CCC(O2)C1(C)C(=O)O (centres unmarked) [Cantharidic acid]
- potency for PP2A (PP2A): inhibits PP2A and PP1 (for use in protein purification)
- potency for PP1 (PP1): inhibits PP2A and PP1 (for use in protein purification)

Molecule: Cn1cc(NC(=O)c2cc(NC(=O)c3cc(NC=O)cn3C)cn2C)cc1C(=O)NCCC(=N)N [Distamycin]
- inhibition of E2F1-DNA complex (E2F1-DNA complex): specifically inhibits E2F1-DNA complex

Molecule: O=C(O)[C@@H]1[C@H](C(=O)O)[C@H]2CC[C@@H]1O2 [Endothall]
- potency for PP2A (PP2A; description of known inhibitor): intermediate potency for PP2A

Molecule: C[C@@](O)(/C=C/[C@H]1CC=CC(=O)O1)[C@@H](C[C@@H](O)\C=C/C=C\C=C\CO)OP(=O)(O)O [Fostriecin sodium salt]
- potency for PP2A (PP2A; description of known inhibitor): potent inhibitors for PP2A and PP4
- potency for PP4 (PP4): potent inhibitors for PP2A and PP4

Molecule: C=C1C(=O)N[C@H](C)C(=O)N[C@@H](CC(C)C)C(=O)N[C@@H](C(=O)O)[C@H](C)C(=O)N[C@@H](CCCNC(=N)N)C(=O)N[C@@H](/C=C/C(C)=C/[C@H](C)[C@H](Cc2ccccc2)OC)[C@H](C)C(=O)N[C@@H](C(=O)O)CCC(=O)N1C [Microcystin LR] (R[Adda][d(γGlu)][NMeDha][dA]L[dAsp(3S-Me)]-OH; lactam N-7)
- potency for PP2A compared to PP1 (PP2A): more potent for PP2A when compared to PP1

Molecule: C=C1[C@@H](O)[C@@H]2O[C@]3(CC[C@H](/C=C/[C@@H](C)[C@@H]4CC(C)=C[C@@]5(O[C@H](C[C@@](C)(O)C(=O)O)CC[C@H]5O)O4)O3)CC[C@H]2O[C@@H]1[C@@H](O)C[C@H](C)[C@H]1O[C@@]2(CCCCO2)CC[C@H]1C [Okadaic acid]
- inhibition of PP2A (PP2A; at 1 nM): completely inhibits PP2A at 1 nM (less potent for PP1)
- potency for PP1 (PP1): completely inhibits PP2A at 1 nM (less potent for PP1)

Molecule: CCCn1c(=O)[nH]c2nc(-c3ccc(S(=O)(=O)N4CCN(Cc5ccccc5)CC4)cc3)[nH]c2c1=O [PSB601]
- antagonism of adenosine A2b receptor (Adenosine A2b receptor): specific antagonist

Molecule: N=C(N)c1ccc(OCCCCCOc2ccc(C(=N)N)cc2)cc1 [Pentamidine]
- inhibition of PRLs (PRLs): inhibits all PRLs

Molecule: Toutomycin
- potency for PP2A compared to PP1 (PP2A; PP2A versus PP1): more potent for PP1, less for PP2A
